{"source": "paper PMC11249626", "about": "“Fluorophore-Labeled Pyrrolones Targeting the Intracellular Allosteric Binding Site of the Chemokine Receptor CCR1” (ACS Pharmacology & Translational Science, 2024)", "key": {"CCR9": {"molecular_target": "T1, CCR9 (Homo sapiens, UniProt P51686)", "T1 construct": "host or cells: HEK293T, transient", "T1 sequence (P51686 1-369)": "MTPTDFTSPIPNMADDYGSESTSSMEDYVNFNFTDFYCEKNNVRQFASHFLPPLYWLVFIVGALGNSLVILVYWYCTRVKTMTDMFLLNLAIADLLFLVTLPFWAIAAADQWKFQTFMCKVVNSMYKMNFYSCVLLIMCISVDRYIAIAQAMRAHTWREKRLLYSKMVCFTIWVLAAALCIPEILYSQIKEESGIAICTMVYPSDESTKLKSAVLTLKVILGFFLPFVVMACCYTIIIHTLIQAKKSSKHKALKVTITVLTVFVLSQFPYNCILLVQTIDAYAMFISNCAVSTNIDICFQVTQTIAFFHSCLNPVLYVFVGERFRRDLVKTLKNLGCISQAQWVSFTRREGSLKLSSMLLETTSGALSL", "test": "NanoBRET-based assay for binding to the IABS of CCR9, as previously reported", "settings": "up to a concentration of 20 μM", "excerpt": "(§1) With 6 (Figure 1), a first lead structure for intracellular CCR1 inhibition that features an approximately 20-fold CCR1 over CCR2 selectivity was previously discovered by Ortiz Zacarías et al.([33]) In order to discover new chemotypes for selective CCR1 over CCR2 inhibition, we aimed to apply our novel NanoBRET competition binding assay for CCR1 in combination with our recently published CCR2 competition binding assay based on 7.[47] In our first attempt, we screened a small in-house library enriched with intracellular GPCR ligands and structural analogues thereof. […] Additionally, we tested 23 for binding to the IABS of CCR9 and CXCR2 using our recently reported NanoBRET-based assay platform (Figure 6C).[44],[45] In the course of these studies, we detected no binding of 23 to CCR9 and CXCR2 up to a concentration of 20 μM. Since cell lineage-dependent effects have been observed for CCR1 antagonists,[59] we studied the CCR1 over CCR2 selectivity of 23 by using a previously reported radioligand binding assay with membrane preparations from osteosarcoma (U2OS) cells stably expressing human CCR1 or CCR2.[33] […] In agreement with these previous reports,[33] we observed a reduction in CCR1 over CCR2 selectivity when moving from membrane-based binding assays to cell-based functional assays. […]"}, "CXCR2": {"molecular_target": "T2, CXCR2 (Homo sapiens, UniProt P25025)", "T2 construct": "host or cells: HEK293T, transient", "T2 sequence (P25025 1-360)": "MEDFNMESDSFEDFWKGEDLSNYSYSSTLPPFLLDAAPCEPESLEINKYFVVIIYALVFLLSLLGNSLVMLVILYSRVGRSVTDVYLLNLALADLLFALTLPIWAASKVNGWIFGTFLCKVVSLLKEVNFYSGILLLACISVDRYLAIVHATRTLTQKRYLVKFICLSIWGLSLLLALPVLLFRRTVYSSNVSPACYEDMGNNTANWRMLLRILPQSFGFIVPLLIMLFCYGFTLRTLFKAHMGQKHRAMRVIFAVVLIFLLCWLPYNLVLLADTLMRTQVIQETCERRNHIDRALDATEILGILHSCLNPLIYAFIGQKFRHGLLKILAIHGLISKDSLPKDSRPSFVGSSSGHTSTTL", "test": "NanoBRET-based assay for binding to the IABS of CXCR2, as previously reported", "settings": "up to a concentration of 20 μM", "excerpt": "as §1"}}, "data": [{"smiles": "O=C(C1=C(O)C(=O)N(CCc2ccc(O)cc2)C1c1ccc(F)cc1)c1ccccc1", "note": "(racemic) [compound 23]", "values": [{"measurement": "Binding to the IABS of CCR9", "setting": "CCR9", "value": "no binding"}, {"measurement": "Binding to the IABS of CXCR2", "setting": "CXCR2", "value": "no binding"}]}]}
